From US9046527B2, “Mutated SUMO isoforms and uses thereof” (Université De Montréal, priority 2009, dated 2015)

How the values were obtained:
[1] = tested on: Ubiquitin-conjugating enzyme E2; test: In vitro SUMOylation assay; type: biochemical; settings: Coomassie or silver stained gel
Experimental: For in vitro SUMOylation, the reaction mixture comprised 20 μL of reaction buffer (20 mM NH4CO3 pH 9, 20 mM NaCl, 0.5 mM DTT), 1 μg recombinant and purified SUMO proteins, 0.5 μg of substrate E2-25K (Boston Biochem) or RanGAP fragment (Boston Biochem), 0.1 μg SASE1/SAE2 heterodimer (Boston Biochem), 0.5 μg conjugating enzyme hUbC9 (Boston Biochem) with or without Mg-ATP solution (Boston Biochem) at 5 mM. The reaction mixture was incubated at 37° C. for 1 hour and subsequently stopped by adding an equal volume of Laemmli Buffer. The reaction mixture was analysed separated by SDS-PAGE and visualized using Western Blotting (2 μl), coomassie staining (10 μL) or silver staining (5 μL) as shown in FIGS. 7 and 8.
Protein extracts were subjected to electrophoresis through a 4-12% NuPAGE Bis-Tris polyacrylamide gel (Invitrogen, Burlington, ON, Canada) under denaturing conditions. After electrophoresis, proteins were fixed within the polyacrylamide gel by incubating the entire gel in 5% (v/v) acetic acid in a 1:1 (v/v) water:ethanol solution. For silver staining, the gel was first sensitized for 1 minute using an aqueous solution of 0.02% sodium thiosulfate (Na2S2O3) unless otherwise indicated. Staining was performed by incubating the gel in 0.1% (v/v) silver nitrate (AgNO3) in water for 25 minutes at 4° C. Finally, the gel was developed in 3% (w/v) sodium carbonate (Na2CO3, pH: 11.4) containing 0.05% formalin (v/v) in water. The staining was then stopped with a solution of 5% (v/v) acetic acid in water. For Coomassie blue staining, proteins were fixed after gel separation and stained in a one-step procedure by incubating the entire gel in 0.1% (w/v) Coomassie Brilliant Blue R-250 in a 1:8:11 (v/v/v) acetic acid:methanol:water mixture for 1 hour at room temperature (RT). The gel was finally rinsed three times in a 1:4:5 (v/v/v) acetic acid:methanol:water solution at RT to visualize protein bands.

HA-RanGAP = test: In vivo SUMOylation assay with transfected HA-RanGAP, immunoblot anti-HA; type: cell-based, human
Experimental: FIG. 9 illustrates immunoblot of in vivo SUMOylation assay using transfected HA-RanGAP as protein substrate. Immunoblots are performed using an antibody that recognized the HA epitope. Immunoblots are presented for His6-SUMO1 (wild type, and mutant Q92R).
SUMO isoform mutants can also be co-transfected in mammalian cells with target protein substrates. For example, RanGAP1, a known SUMOylation target forms a tight complex in association with NUP358 and UBE2I/UBC9. The ubiquitin-conjugating enzyme E2 interacts with UBE2I favoring the conjugation of SUMO1 to RANGAP1, and subsequently stabilizes interactions of SUMOylated RANGAP1 with RANBP2/NUP358. The SUMO1/RANGAP1/UBC9/NUP358 complex associates with nuclear pore complexes (Joseph, J., Tan, S. H., Karpova, T. S., McNally, J. G., and Dasso, M. (2002). SUMO-1 targets RanGAP1 to kinetochores and mitotic spindles. The Journal of cell biology 156, 595-602; Swaminathan, S., Kiendl, F., Korner, R., Lupetti, R., Hengst, L., and Melchior, F. (2004). RanGAP1*SUMO1 is phosphorylated at the onset of mitosis and remains associated with RanBP2 upon NPC disassembly. The Journal of cell biology 164, 965-971). The SUMO isoform mutants are also functional and can be conjugated to RanGAP1 following transfection of these proteins in […] cells, as illustrated in FIG. 9. […]

PML = biological target: T1, PML (Homo sapiens, UniProt P29590); test: LC-MS/MS of tryptic peptides from NTA-purified His-SUMO3 proteins of HEK293 cells treated or not with As2O3; type: cell-based
T1 construct: tryptic peptides from NTA-purified His-SUMO3 proteins of HEK293 cells treated or not with As2O3; endogenous in cells; host or cells: HEK293 cells expressing the His-SUMO3 mutant
T1 sequence (P29590 1-882): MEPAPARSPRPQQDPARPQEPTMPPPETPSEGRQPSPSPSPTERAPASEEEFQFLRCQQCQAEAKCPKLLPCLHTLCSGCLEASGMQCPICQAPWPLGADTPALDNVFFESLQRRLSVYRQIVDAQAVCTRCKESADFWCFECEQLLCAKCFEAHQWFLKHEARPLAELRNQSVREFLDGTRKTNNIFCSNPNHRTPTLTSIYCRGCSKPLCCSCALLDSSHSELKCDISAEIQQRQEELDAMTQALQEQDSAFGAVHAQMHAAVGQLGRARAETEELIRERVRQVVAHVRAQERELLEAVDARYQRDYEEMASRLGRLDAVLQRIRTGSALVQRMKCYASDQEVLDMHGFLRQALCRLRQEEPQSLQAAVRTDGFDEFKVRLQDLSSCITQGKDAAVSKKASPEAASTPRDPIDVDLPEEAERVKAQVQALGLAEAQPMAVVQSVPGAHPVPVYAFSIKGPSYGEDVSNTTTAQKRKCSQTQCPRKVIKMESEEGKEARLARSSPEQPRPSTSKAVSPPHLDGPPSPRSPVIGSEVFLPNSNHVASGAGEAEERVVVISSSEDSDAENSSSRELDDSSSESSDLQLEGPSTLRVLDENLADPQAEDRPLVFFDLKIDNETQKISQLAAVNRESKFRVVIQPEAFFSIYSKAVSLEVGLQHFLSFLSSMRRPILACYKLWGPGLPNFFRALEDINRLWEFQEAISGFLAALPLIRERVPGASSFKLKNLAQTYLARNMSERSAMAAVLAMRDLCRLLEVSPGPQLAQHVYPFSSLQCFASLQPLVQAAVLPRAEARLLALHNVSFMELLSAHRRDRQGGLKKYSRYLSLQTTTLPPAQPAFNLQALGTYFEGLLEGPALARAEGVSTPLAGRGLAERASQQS
Experimental: FIG. 21 is a scatter plot of tryptic peptides from NTA-purified His-SUMO3 proteins of HEK293 cells treated or not with As2O3.
(§1) SUMOylated proteins were purified from 10^9 cells of stably expressing His6-SUMO1 mutant; half of cell culture was treated with 1 μM As2O3 during 4 hours. Cells were harvested, washed with PBS and lysed with 15 mL of Buffer A (6 M guanidinium-HCl, 0.1 M NaH2PO4, 0.01 M Tris-HCl, pH 8.0, 10 mM-mercaptoethanol). The lysate was sonicated, centrifuged at 16 000 g for 30 minutes and filtered on 0.45 μm and mixed with 500 μL Ni^2+-NTA agarose beads (Invitrogen) pre-washed with lysis buffer and incubated overnight at room temperature on rotating wheel. The NTA beads were successively washed with the following solutions: buffer A, buffer B (8 M Urea, 0.1 M NaH2PO4, 0.01 M Tris-HCl, pH 6.3, 10 mM-mercaptoethanol), buffer B plus 0.2% Triton X-100, twice with buffer B. His SUMO proteins were eluted from the NTA beads using 200 mM imidazole, 0.15 M Tris-HCl, pH 6.7, 5% Glycerol. An example of the enriched His6-SUMO1 mutant proteins is shown on FIG. 20 following SDS-PAGE separation and gel visualisation using silver staining and anti-His immonublot.
This scatter plot compares the abundance of more than 4500 peptide ions, of which approximately 45 correspond to SUMOylated tryptic peptides (blue circles). […]

[2] = tested on: PML-nuclear bodies in HEK293 human cells; test: Immunofluorescence microscopy: co-localization of PML-Yellow Fluorescence Protein with His6-SUMO to nuclear bodies; type: cell-based; settings: HEK293, incubation with 1 μM As2O3
From the text: Immunofluorescence microscopy of HEK293 human cells showing co-localization of PML-Yellow Fluorescence Protein with His6 SUMO1 WT (top) and Q92R mutant (bottom) to nuclear bodies. […] DAPI staining (nucleus).
Immunofluorescence microscopy of HEK293 human cells showing co-localization of PML-Yellow Fluorescence Protein with His6-SUMO1 WT, His6-SUMO1 mutant, His6-SUMO2 WT, His6-SUMO2 mutant, His6-SUMO3 WT, and His6-SUMO3 mutant to nuclear bodies, DAPI staining (nucleus).
The functional activity of the wild type and SUMO mutants was also determined from immunofluorescence microscopy by monitoring the recruitment of the SUMOylated promyelocytic leukaemia (PML) substrate to nuclear bodies following treatment of HEK293 cells with As2O3 (FIG. 14). The visualization of all SUMO mutants using this immunofluorescence assay also confirmed the functional activity of all three SUMO isoforms (FIG. 15).

protein SUMOylation = test: NTA purification of His6-SUMO1 mutant proteins, silver-stained SDS-PAGE and immunoblot anti-His; type: cell-based, human; settings: cells stably expressing His6-SUMO1 mutant, stimulation with As2O3
Experimental: FIG. 20 illustrates gel electrophoresis separation of His6-SUMO1 mutant proteins following NTA purification. Silver-stained SDS-PAGE and immunoblot anti-His show an enrichment of His6-SUMO1 proteins as indicated from the trail of protein bands at the top of the gel.
as §1

In the case of “His6-SUMO2 Q88R: Substitution of Gln for Arg at position 88 in endogenous SUMO2 protein, N-terminal His6; SEQ ID NO: 8”, the “SUMOylated E2 band on stained gel” value [1] is reported as “SUMOylated E2 is observed as the highest molecular weight band”.

With “His6-SUMO1 Q92R: Substitution of Gln for Arg at position 92 in endogenous SUMO1 protein, N-terminal His6; SEQ ID NO: 4” the “SUMOylated E2 band on stained gel” value [1] was “SUMOylated E2 is observed as the highest molecular weight band” and the “SUMOylated HA-RanGAP band on immunoblot” value (HA-RanGAP) was “SUMOylated HA-RanGAP is observed as the highest molecular weight band”.

`[AsH3]` [As2O3] was tested, and the “abundance of PML peptides” value (PML; HEK293, NTA-purified His-SUMO3 proteins, upon As2O3 treatment) was “significant increased in abundance”, the “increase in SUMOylation of K490 bearing PML peptide” value (PML; HEK293 His-SUMO3 mutant, As2O3 treated vs not treated) was 8 fold and the “formation of PML-nuclear bodies” value [2] was “Increase formation of PML-nuclear bodies”. For the same molecule, the “protein SUMOylation (His6-SUMO1 protein bands)” value (protein SUMOylation) was “Enhanced protein SUMOylation”.

For “His6-SUMO1 E93R: recombinant His6-SUMO1 with mutation E93R”, the “SUMOylated E2 band on stained gel” value [1] was “SUMOylated E2 is observed as the highest molecular weight band”.

With “His6-SUMO1 Q94R: recombinant His6-SUMO1 with mutation Q94R” the “SUMOylated E2 band on stained gel” value [1] was “SUMOylated E2 is observed as the highest molecular weight band”.

B1: His6-SUMO3 Q92R/Q93N: Gln to Arg at position 87 and Gln to Asn at position 88 in endogenous SUMO3, N-terminal His6; SEQ ID NO: 12 (protein, listed as Homo sapiens)
chain: MAHHHHHHGGSMSEEKPKEGVKTENDHINLKVAGQDGSVVQFKIKRHTPLSKLMKAYCERQGLSMRQIRFRFDGQPINETDTPAQLEMEDEDTIDVFRNQTGG
modifications: N-terminal His6
With B1 the “SUMOylated E2 band on stained gel” value [1] was “SUMOylated E2 is observed as the highest molecular weight band”.
